US10098830B2, “Oral care compositions” (BASF SE, priority 2014, dated 2018)
Like-named read-outs stand apart in the source and are kept apart here.

What was measured:
48 hour saliva biofilms = assay: Disruption of established 48 hour saliva biofilms; format: cell-based, pooled human saliva; conditions: for Disruption of 48 hour saliva biofilms after treatment for 5 minutes: Chelate control: 0.1% Trilon Ca
Description: Method to screen combinations of actives, example polymers and chelates to identify potential synergies for biofilm disruption.
Polystyrene Pegs are pellicle treated with fresh pooled human saliva for 30 minutes at 37° C. aerobically. Saliva is inoculated into BHI broth at a final concentration of 10% saliva. 200 ul of inoculated or uninoculated media is added to each well. The pegs are added to the growth media and incubated anaerobically 37° C.
At 24 hr. the pegs are removed and transferred to a fresh plate containing 200 ul of sterile BHI. And incubated anaerobically for another 24 hr at 37 C.
After 48 hr of growth time, pegs containing the biofilms are transferred to a 96 well rinse plate containing 200 ul of or BHI. Following a 5 minute rinse at room temperature, the pegs are transferred to a treatment plate containing combinations of actives, chelate and polymers. This is followed a 5 minute treatment (shaking at 500 rpm). The treated pegs are transferred to a white 96 well plate containing 200 ul Bac-titer-Glo reagent—this is incubated at room temperature for 5 minutes (shaking) and read on a plate reader for luminescence.
Polymers are evaluated using the Biofilm disruption model as described above.
Example polymers (xylitol-EDTA polymer and xylitol-arginine-succinic acid polymer) are combined with example actives (epsilon-polylysine and chlorhexidine) and a chelator (Ca EDTA).

S. mutans (ATCC #25175) = assay: Inhibition of bacterial acid production (Bromo Cresol Purple broth, OD 588 / OD 427); format: cell-based, Streptococcus mutans
Description: Method to observe the acid production of S. mutans in a medium containing a pH indicator and glucose. Observe how xylitol and the example polymers affect acid production. A culture of S. mutans (ATCC #25175) is grown statically overnight in 10 mL liquid broth (BHI) at 37° C. […] The no treatment control has 20 ul water added. To each experimental well 180 of the inoculated BCP broth is added. To the no inoculum control 20 ul water and 20 ul filter sterilized overnight culture broth are added. […] Both wavelengths are measured every hour for several hours but before evaporation became an issue. The plates are shaken for 10 seconds before reading.

porcine esterase = assay: Enzymatic degradation of xylitol polymer by esterase (pH change); format: in vitro ADME
Description: The method for determining enzymatic breakdown of polymer is determined by Sigma Quality Control Test Procedure: Enzymatic Assay of Esterase. This assay however, exchanges Ethyl Butyrate solution with solution of test polymer. pH change is monitored over time as an indicator of esterase activity and polymer degradation.
Degradation of example polymers is conducted using porcine esterase. Esterase activity decreases the pH of the solution. The pH is monitored at the start and end of the assay (90 minutes).

[1] = test system: multispecies saliva derived biofilm; assay: Substantivity: multispecies saliva derived biofilm growth after 24 hr on pre-treated hydroxyl apatite surfaces; format: cell-based, human saliva; conditions: for % decrease in biofilm as compared to growth control (negative indicates increased biofilm): saliva biofilm, 24 hr, pre-treated surface
Description: Method to evaluate the substantivity of polymers to hydroxyl apatite surfaces and the effects these polymers have on the growth of Streptococcus mutans and Saliva derived biofilms. For Multispecies Saliva Biofilms: Hydroxy apatite (HA) coated surfaces are pellicle treated with pooled human saliva 200 ul/per well of a 96 well clear plate for 30 minutes at 37° C. aerobically. […] The peg lids are transferred to a clear 96 well plate containing 200 ul of the designated treatments below in Jordan's with 5% sucrose. […] After 30 mins of treatment the two pegs are transferred to a 96 well plate containing 200 ul of water and it is rinsed for 10 min at 500 rpm. […] After incubation the peg lids are transferred to a rinse plate containing 200 ul of water for 5 minutes and then transferred to white 96 well plate containing 200 ul Bac-titer-Glo, this is shaken for 5 minutes and read for luminescence.

[2] = test system: S. mutans (ATCC #25175) biofilm; assay: Substantivity: Streptococcus mutans biofilm growth after 24 hr on pre-treated hydroxyapatite surfaces; format: cell-based; conditions: pre-treated surface
Description: Method to evaluate the substantivity of polymers to hydroxyl apatite surfaces and the effects these polymers have on the growth of Streptococcus mutans and Saliva derived biofilms. For S. mutans Biofilms: S. mutans (ATCC #25175) is inoculated into 10 mL BHI and incubated statically at 37° C. overnight. […] Hydroxy apatite coated peg lids are pellicle treated with sterile artificial saliva 200 ul/per well of a 96 well clear plate for 30 minutes at 37° C. aerobic. The peg lids are transferred to a clear 96 well plate containing 200 ul of the designated treatments below in Jordan's with 5% sucrose. […] After 30 mins of treatment the two pegs are transferred to a 96 well plate containing 200 ul of water and it is rinsed for 10 min at 500 rpm. […] After incubation the peg lids are transferred to a rinse plate containing 200 ul of water for 5 minutes and then transferred to white 96 well plate containing 200 ul Bac-titer-Glo, this is shaken for 5 minutes and read for luminescence. Results: Polymers are evaluated using the substantivity for biofilm prevention method indicated above for both S. mutans and multispecies saliva derived biofilms.

S. mutans 25175 biofilm = assay: Prevention of Streptococcus mutans biofilm development on hydroxy apatite pegs (Bac-titer-Glo); format: cell-based; conditions: 2% xylitol
Description: Prevention of Biofilm Development S. mutans Biofilms: S. mutans 25175 is inoculated into 10 mL BHI and incubated statically at 37° C. overnight. […] Hydroxy apatite coated peg lids are pellicle treated with sterile artificial saliva 200 ul/per well of a 96 well clear plate for 30 minutes at 37° C. aerobic. […] Test solutions are added to a desired final concentration and water is added to bring the final volume to 200 ul. […] Polymers are evaluated using the biofilm prevention method indicated above for both S. mutans and multispecies saliva derived biofilm.

[3] = test system: multispecies saliva biofilm; assay: Prevention of multispecies saliva biofilm development on hydroxy apatite pegs (Bac-titer-Glo); format: cell-based, pooled human saliva; conditions: 2% xylitol
Description: Prevention of Biofilm Development Multispecies Saliva Biofilms: Hydroxy apatite (HA) coated surfaces of a 96 peg lid (Biosurface Technologies, Boseman, Mont.) are pellicle treated with pooled human saliva 200 μl/per well of a 96 well clear plate for 30 minutes at 37° C. aerobically. Into each well of the growth plate, clear 96 well plate, 160 μl inoculated Brain Heart Infusion (BHI) broth is added. Test solutions are added to a desired final concentration and water is added to bring the final volume to 200 μl. The hydroxyl apatite coated pegs are added to. […] Polymers are evaluated using the biofilm prevention method indicated above for both S. mutans and multispecies saliva derived biofilm.

## [H]/N=C(\N/C(=N/[H])NCCCCCCNC(=N)NC(=N)Nc1ccc(Cl)cc1)Nc1ccc(Cl)cc1 [Chlorhexidine, chlorhexidine]
48 hour saliva biofilms; 0.06% Chlorhexidine
  Disruption of 48 hour saliva biofilms after treatment for 5 minutes: Active control: −10^

## O=C(O)CCC(=O)O [succinic acid]
S. mutans (ATCC #25175)
  effect on acid production of S. mutans (change of OD 588 / OD 427, pH), in words: no or little change

## Xylitol-Carboxymethyl Cellulose Polymer
Porcine esterase
  End pH: 7.47
  Start pH: 8.37
  degradation by esterase, in words: degraded by the esterase

## N=C(N)NCCC[C@H](N)C(=O)O [L-Arginine]
[1]; % treatment 0.070%
  % decrease in biofilm as compared to growth control (negative indicates increased biofilm): −28%
[1]; % treatment 0.140%
  % decrease in biofilm as compared to growth control (negative indicates increased biofilm): −20%
[1]; % treatment 0.280%
  % decrease in biofilm as compared to growth control (negative indicates increased biofilm): −24%
[1]; % treatment 0.560%
  % decrease in biofilm as compared to growth control (negative indicates increased biofilm): −22%
[1]; % treatment 1.120%
  % decrease in biofilm as compared to growth control (negative indicates increased biofilm): 49%
S. mutans (ATCC #25175)
  effect on acid production of S. mutans (change of OD 588 / OD 427, pH), in words: no acid inhibiting effects
[2]; % treatment 0.070%
  % decrease in biofilm as compared to growth control (negative indicates increased biofilm): −40%
[2]; % treatment 0.140%
  % decrease in biofilm as compared to growth control (negative indicates increased biofilm): −18%
[2]; % treatment 0.280%
  % decrease in biofilm as compared to growth control (negative indicates increased biofilm): −59%
[2]; % treatment 0.560%
  % decrease in biofilm as compared to growth control (negative indicates increased biofilm): −53%
[2]; % treatment 1.120%
  % decrease in biofilm as compared to growth control (negative indicates increased biofilm): −29%

## CCOC(C)=O [Ethyl Acetate]
Porcine esterase; 0.2% (positive control), porcine esterase, end of the assay (90 minutes)
  End pH: 5.00
Porcine esterase; 0.2% (positive control), porcine esterase, start of assay
  Start pH: 8.30

## O=C([O-])CN(CCN(CC(=O)[O-])CC(=O)[O-])CC(=O)[O-].[Ca+2].[Na+].[Na+] [Trilon Ca]
48 hour saliva biofilms; Chlorhexidine / Xylitol-EDTA polymer series
  Disruption of 48 hour saliva biofilms after treatment for 5 minutes: Chelate control: −1
48 hour saliva biofilms; e-polylysine / Arginine-Xylitol-Succinic Acid Terpolymer series
  Disruption of 48 hour saliva biofilms after treatment for 5 minutes: Chelate control: −10

## O=C(O)CC(O)(CC(=O)O)C(=O)O [citric acid]
S. mutans (ATCC #25175)
  effect on acid production of S. mutans (change of OD 588 / OD 427, pH), in words: no or little change

## O=C(O)CN(CCN(CC(=O)O)CC(=O)O)CC(=O)O [EDTA, ethylenediaminetetraacetic acid]
[1]; observations consistent for both S. mutans and saliva biofilms
  substantivity (retention of biofilm prevention activity after rinsing), in words: also substantive
[1]; % treatment 0.083%
  % decrease in biofilm as compared to growth control (negative indicates increased biofilm): 17%
[1]; % treatment 0.165%
  % decrease in biofilm as compared to growth control (negative indicates increased biofilm): 25%
[1]; % treatment 0.330%
  % decrease in biofilm as compared to growth control (negative indicates increased biofilm): 32%
[1]; % treatment 0.660%
  % decrease in biofilm as compared to growth control (negative indicates increased biofilm): 60%
[1]; % treatment 1.320%
  % decrease in biofilm as compared to growth control (negative indicates increased biofilm): 79%
S. mutans (ATCC #25175)
  effect on acid production of S. mutans (change of OD 588 / OD 427, pH), in words: no or little change
[2]; % treatment 0.083%
  % decrease in biofilm as compared to growth control (negative indicates increased biofilm): 13%
[2]; % treatment 0.165%
  % decrease in biofilm as compared to growth control (negative indicates increased biofilm): 37%
[2]; % treatment 0.330%
  % decrease in biofilm as compared to growth control (negative indicates increased biofilm): 44%
[2]; % treatment 0.660%
  % decrease in biofilm as compared to growth control (negative indicates increased biofilm): 46%
[2]; % treatment 1.320%
  % decrease in biofilm as compared to growth control (negative indicates increased biofilm): 41%

## CCCCCCCCCCCCCCCC[n+]1ccccc1 [Cetylpyridinium chloride]
[1]; % treatment 0.070%
  % decrease in biofilm as compared to growth control (negative indicates increased biofilm): 98%
[2]; % treatment 0.070%
  % decrease in biofilm as compared to growth control (negative indicates increased biofilm): 100%

## OC[C@@H](O)[C@H](O)[C@@H](O)CO [Xylitol]
S. mutans 25175 biofilm
  percent reduction from the untreated control: −1%
[3]
  percent reduction from the untreated control: 17%
S. mutans (ATCC #25175)
  effect on acid production of S. mutans (change of OD 588 / OD 427, pH), in words: acid inhibition at all concentrations tested
